Measured values published in PubChem BioAssay AID1963438 (Molecular Pharmacology Branch, DTP, NCI, 2024).
“And” between values parts separate entries of the source, which are not always exact repeats. Identical values can stand only once. Values belong to the compound of their own block, whether it stands above or below them.

Tested on: NCI-H510 multicellular tumor spheroid growth, % test/control
Experiment: Anticancer human tumor NCI-H510 cell line growth inhibition [Asc];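 note: spheroids exposed to agents for 7 days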;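 for viability, T/C: 100% = DMSO vehicle control wells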
Conditions: for viability, T/C: stronger effect = lower value
Outline: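 Spheroid model: tumor line + HUVEC + hMSC. Single agents and combinations; top conc. at/near clinical Cmax (10 microM if undetermined), half-log dilutions. DMSO stocks at 800-fold test concentration.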

[1] = curve of first compound, second compound 0.1 µM
[2] = curve of first compound, second compound 0.316 µM
[3] = curve of first compound, second compound 1 µM
[4] = curve of first compound, second compound 3.16 µM
[5] = curve of first compound, second compound 10 µM
[6] = second compound 0.1 µM, first compound 0.0316 µM
[7] = second compound 0.1 µM, first compound 0.1 µM
[8] = second compound 0.1 µM, first compound 0.316 µM
[9] = second compound 0.1 µM, first compound 1 µM
[10] = second compound 0.316 µM, first compound 0.0316 µM
[11] = second compound 0.316 µM, first compound 0.1 µM
[12] = second compound 0.316 µM, first compound 0.316 µM
[13] = second compound 0.316 µM, first compound 1 µM
[14] = second compound 1 µM, first compound 0.0316 µM
[15] = second compound 1 µM, first compound 0.1 µM
[16] = second compound 1 µM, first compound 0.316 µM
[17] = second compound 1 µM, first compound 1 µM
[18] = second compound 3.16 µM, first compound 0.0316 µM
[19] = second compound 3.16 µM, first compound 0.1 µM
[20] = second compound 3.16 µM, first compound 0.316 µM
[21] = second compound 3.16 µM, first compound 1 µM
[22] = second compound 10 µM, first compound 0.0316 µM
[23] = second compound 10 µM, first compound 0.1 µM
[24] = second compound 10 µM, first compound 0.316 µM
[25] = second compound 10 µM, first compound 1 µM

IC50 [1]: > 1 µM | IC50 [2]: > 1 µM | IC50 [3]: 0.651 µM | IC50 [4]: 0.64 µM | IC50 [5]: 0.408 µM
Structure (SMILES): CCN1CCN(Cc2ccc(Nc3ncc(F)c(-c4cc(F)c5nc(C)n(C(C)C)c5c4)n3)nc2)CC1 + Cc1c(S(C)(=O)=O)c(-c2cc(F)cc(N3CCN(c4ccc(NS(=O)(=O)c5ccc(NC(CCN6CCC(C(=O)OCCCP(=O)(O)O)CC6)CSc6ccccc6)c(S(=O)(=O)C(F)(F)F)c5)cc4)CC3)c2)c(-c2ccc(Cl)cc2)n1C(C)C
viability, T/C (second compound 0.1 µM, first compound 0.00316 µM): 112% | viability, T/C (second compound 0.1 µM, first compound 0.01 µM): 91.2% | viability, T/C [6]: 98% | viability, T/C [7]: 75.1% | viability, T/C [8]: 86.1% | viability, T/C [9]: 103% | viability, T/C (second compound 0.316 µM, first compound 0.00316 µM): 104% | viability, T/C (second compound 0.316 µM, first compound 0.01 µM): 94.8% | viability, T/C [10]: 102% | viability, T/C [11]: 108% | viability, T/C [12]: 88.3% | viability, T/C [13]: 87.8% | viability, T/C (second compound 1 µM, first compound 0.00316 µM): 98.4% | viability, T/C (second compound 1 µM, first compound 0.01 µM): 90.7% | viability, T/C [14]: 76.2% | viability, T/C [15]: 74.3% | viability, T/C [16]: 74.9% | viability, T/C [17]: 38.2% | viability, T/C (second compound 3.16 µM, first compound 0.00316 µM): 69.6% | viability, T/C (second compound 3.16 µM, first compound 0.01 µM): 93% | viability, T/C [18]: 107% | viability, T/C [19]: 112% | viability, T/C [20]: 61.2% | viability, T/C [21]: 42.9% | viability, T/C (second compound 10 µM, first compound 0.00316 µM): 104% | viability, T/C (second compound 10 µM, first compound 0.01 µM): 102% | viability, T/C [22]: 78.2% | viability, T/C [23]: 90.4% | viability, T/C [24]: 56.9% | viability, T/C [25]: 18.8%

IC50 [1]: > 10 µM | IC50 [2]: > 10 µM | IC50 [3]: > 10 µM | IC50 [4]: > 10 µM | IC50 [5]: > 10 µM
Structure (SMILES): C=CC(=O)N1CCN(c2nc(=O)n(-c3c(C)ccnc3C(C)C)c3nc(-c4c(O)cccc4F)c(F)cc23)C(C)C1 (centres undefined) + Cc1c(S(C)(=O)=O)c(-c2cc(F)cc(N3CCN(c4ccc(NS(=O)(=O)c5ccc(NC(CCN6CCC(C(=O)OCCCP(=O)(O)O)CC6)CSc6ccccc6)c(S(=O)(=O)C(F)(F)F)c5)cc4)CC3)c2)c(-c2ccc(Cl)cc2)n1C(C)C
viability, T/C [6]: 102% | viability, T/C [7]: 110% | viability, T/C [8]: 124% | viability, T/C [9]: 94.7% | viability, T/C (second compound 0.1 µM, first compound 3.16 µM): 86.3% | viability, T/C (second compound 0.1 µM, first compound 10 µM): 98.4% | viability, T/C [10]: 106% | viability, T/C [11]: 103% | viability, T/C [12]: 115% | viability, T/C [13]: 103% | viability, T/C (second compound 0.316 µM, first compound 3.16 µM): 109% | viability, T/C (second compound 0.316 µM, first compound 10 µM): 86% | viability, T/C [14]: 85.6% | viability, T/C [15]: 89.5% | viability, T/C [16]: 115% | viability, T/C [17]: 121% | viability, T/C (second compound 1 µM, first compound 3.16 µM): 98.1% | viability, T/C (second compound 1 µM, first compound 10 µM): 79.3% | viability, T/C [18]: 80% | viability, T/C [19]: 100% | viability, T/C [20]: 117% | viability, T/C [21]: 118% | viability, T/C (second compound 3.16 µM, first compound 3.16 µM): 79.7% | viability, T/C (second compound 3.16 µM, first compound 10 µM): 108% | viability, T/C [22]: 102% | viability, T/C [23]: 106% | viability, T/C [24]: 97.8% | viability, T/C [25]: 100% | viability, T/C (second compound 10 µM, first compound 3.16 µM): 89.4% | viability, T/C (second compound 10 µM, first compound 10 µM): 81.9%

Further lines, the compound ahead of its results:

Structure (SMILES): NC(=O)C(=Cn1cnc(-c2cc(C(F)(F)F)cc(C(F)(F)F)c2)n1)c1cncnc1 + CNC(C)C(=O)NC1CN(S(=O)(=O)c2cccc(S(=O)(=O)N3CCC4CCC(C(=O)NC(c5ccccc5)c5ccccc5)N4C(=O)C(NC(=O)C(C)NC)C3)c2)CCC2CCC(C(=O)NC(c3ccccc3)c3ccccc3)N2C1=O
IC50 (curve of first compound, second compound 0.01 µM): > 0.3 µM | IC50 (curve of first compound, second compound 0.0316 µM): > 0.3 µM | IC50 [1]: > 0.3 µM | IC50 [2]: > 0.3 µM | IC50 [3]: > 0.3 µM | viability, T/C (second compound 0.01 µM, first compound 0.000949 µM): 104% | viability, T/C (second compound 0.01 µM, first compound 0.003 µM): 112% | viability, T/C (second compound 0.01 µM, first compound 0.00949 µM): 104% | viability, T/C (second compound 0.01 µM, first compound 0.03 µM): 92.3% | viability, T/C (second compound 0.01 µM, first compound 0.0949 µM): 110% | viability, T/C (second compound 0.01 µM, first compound 0.3 µM): 101% | viability, T/C (second compound 0.0316 µM, first compound 0.000949 µM): 92.3% | viability, T/C (second compound 0.0316 µM, first compound 0.003 µM): 101% | viability, T/C (second compound 0.0316 µM, first compound 0.00949 µM): 102% | viability, T/C (second compound 0.0316 µM, first compound 0.03 µM): 108% | viability, T/C (second compound 0.0316 µM, first compound 0.0949 µM): 112% | viability, T/C (second compound 0.0316 µM, first compound 0.3 µM): 108% | viability, T/C (second compound 0.1 µM, first compound 0.000949 µM): 110% | viability, T/C (second compound 0.1 µM, first compound 0.003 µM): 94.5% | viability, T/C (second compound 0.1 µM, first compound 0.00949 µM): 107% | viability, T/C (second compound 0.1 µM, first compound 0.03 µM): 110% | viability, T/C (second compound 0.1 µM, first compound 0.0949 µM): 112% | viability, T/C (second compound 0.1 µM, first compound 0.3 µM): 96.8% | viability, T/C (second compound 0.316 µM, first compound 0.000949 µM): 115% | viability, T/C (second compound 0.316 µM, first compound 0.003 µM): 116% | viability, T/C (second compound 0.316 µM, first compound 0.00949 µM): 109% | viability, T/C (second compound 0.316 µM, first compound 0.03 µM): 87.3% | viability, T/C (second compound 0.316 µM, first compound 0.0949 µM): 109% | viability, T/C (second compound 0.316 µM, first compound 0.3 µM): 95.9% | viability, T/C (second compound 1 µM, first compound 0.000949 µM): 93.7% | viability, T/C (second compound 1 µM, first compound 0.003 µM): 107% | viability, T/C (second compound 1 µM, first compound 0.00949 µM): 93.6% | viability, T/C (second compound 1 µM, first compound 0.03 µM): 104% | viability, T/C (second compound 1 µM, first compound 0.0949 µM): 105% | viability, T/C (second compound 1 µM, first compound 0.3 µM): 92.9%

Structure (SMILES): C=C(F)C(=O)N1CCN(c2nc(OCC3CCCN3C)nc3c2CCN(c2cccc4cccc(Cl)c24)C3)CC1CC#N (centres undefined)
viability, T/C (compound 0.0316 µM): 109% and 85.9% and 108% | viability, T/C (compound 0.1 µM): 87.2% and 84.2% and 92% | viability, T/C (compound 0.316 µM): 72.8% and 84.8% and 97.8% | viability, T/C (compound 1 µM): 67.5% and 68.6% and 102% | viability, T/C (compound 3.16 µM): 1.87% and 8.13% and 16.5% | viability, T/C (compound 10 µM): 0.2% and 0.21% and 0.25% | IC50 (curve of compound): 1.34 µM and 1.42 µM and 1.99 µM

Structure (SMILES): Cc1nc(N2CCC3(CC2)COC(C)C3N)c(CO)nc1Sc1ccnc(N)c1Cl (centres undefined)
viability, T/C (compound 0.00949 µM): 103% and 93.2% and 86.2% | viability, T/C (compound 0.03 µM): 101% and 121% and 91% | viability, T/C (compound 0.0949 µM): 103% and 109% and 98.7% | viability, T/C (compound 0.3 µM): 99% and 118% and 99.2% | viability, T/C (compound 0.949 µM): 96.9% and 107% and 96.8% | viability, T/C (compound 3 µM): 100% and 106% and 80.6% | IC50 (curve of compound): > 3 µM
